49 molecules from patent US20230364079A1, “COMPOUND AS BRAIN-PERMEABLE BTK OR HER2 INHIBITOR, PREPARATION METHOD THEREFOR, AND USE THEREOF” (CHENGDU HYPERWAY PHARMACEUTICALS CO., LTD., priority 2020, published 2023) can be followed below.

The target of this experiment is BTK wild-type kinase (Homo sapiens (Human), UniProt Q06187). Nature of the experiment: BTK kinase activity inhibition test in vitro (Caliper EZ Reader). In kind it is biochemical. Here is the method: In the tests on the activity of inhibiting BTK and HER2 kinase in vitro in the examples of the present disclosure, powder of the compound was dissolved in 100% DMSO to prepare a 10 mM stock solution and stored at-20° C. in the dark. […] In addition, the compounds were subjected to experiments such as liver microsome metabolic stability, rat PK, rat brain penetration rate, and drug efficacy model in the examples of the present disclosure.
Chain of BTK wild-type kinase (Q06187 whole entry): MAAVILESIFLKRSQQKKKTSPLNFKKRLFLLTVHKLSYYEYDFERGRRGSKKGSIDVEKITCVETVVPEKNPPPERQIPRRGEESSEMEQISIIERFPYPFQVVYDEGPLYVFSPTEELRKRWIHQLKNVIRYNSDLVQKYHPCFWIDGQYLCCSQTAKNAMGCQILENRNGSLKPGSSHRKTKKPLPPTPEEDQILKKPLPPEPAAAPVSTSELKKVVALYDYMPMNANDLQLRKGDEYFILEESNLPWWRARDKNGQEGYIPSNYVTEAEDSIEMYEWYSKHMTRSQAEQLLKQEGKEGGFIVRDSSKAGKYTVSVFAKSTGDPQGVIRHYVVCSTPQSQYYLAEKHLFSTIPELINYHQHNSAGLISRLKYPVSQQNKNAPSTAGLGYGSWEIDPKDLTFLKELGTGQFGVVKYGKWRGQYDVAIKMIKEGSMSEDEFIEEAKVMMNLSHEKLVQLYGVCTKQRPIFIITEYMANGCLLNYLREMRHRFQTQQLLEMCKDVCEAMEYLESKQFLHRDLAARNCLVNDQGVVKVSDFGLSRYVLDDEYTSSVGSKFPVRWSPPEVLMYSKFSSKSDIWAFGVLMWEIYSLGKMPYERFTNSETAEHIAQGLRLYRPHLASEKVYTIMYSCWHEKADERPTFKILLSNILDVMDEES
Compound powders were dissolved in 100% DMSO to make 10 mM stock solutions, which were stored at -20° C. in the dark.
2: Kinase Reaction Process
(1) Preparation of 1 × Kinase buffer.
(5) After centrifugation at 1000 rpm for 30 seconds, the reaction plate was shaken to mix well and incubated at room temperature for 10 min.
(6) A 5/3-fold final concentration of a mixed solution of ATP and Kinase substrate 2 was prepared with 1 × Kinase buffer.
(7) 15 µL of the mixed solution of ATP and substrate with 5/3-fold final concentration was added to start the reaction.
(8) The 384-well plate was centrifuged at 1000 rpm for 30 seconds, shaken to mix well, and incubated at room temperature for 10 min.
(9) 30 µL of a stop solution was added to stop the kinase reaction, and after centrifugation at 1000 rpm for 30 seconds, the plate was shaken to mix well;
(10) The conversion rate was read with Caliper EZ Reader.
where Conversion%_sample indicates the conversion rate reading of the sample; Conversion%_min is the average reading of the negative control wells, representing the conversion rate reading of the wells without enzyme activity; Conversion%_max is the average reading of the ratio of the positive control wells, representing the conversion rate reading of the wells without compound inhibition.
Dose-Response Curve Fitting
With the log value of the concentration as the X-axis, and the percentage inhibition rate as the Y-axis, the dose-effect curve was fitted using the log(inhibitor) vs. response-Variable slope of the analysis software GraphPad Prism 5, so as to determine the IC50 value of each compound on the enzyme activity.
The calculation formula was: […]
In turn, `COc1ccccc1Oc1ccc(-c2nc(C3CCC(CO)OC3)n3ccnc(N)c23)cc1` (stereo not shown) [Compound 88] showed an IC50 of 0.02 to 0.1 µM.
To `COc1cccc(Oc2ccc(-c3nc(C45CCC(CO)(CC4)OC5)n4ccnc(N)c34)c(F)c2)c1F` [Compound 38] belongs 0.005 to 0.02 µM; to `Nc1nccn2c(C3CCC(CO)OC3)nc(-c3ccc(C(=O)Nc4cc(C(F)(F)F)ccn4)cc3)c12` (single isomer, unassigned) [Compound 109-P2], less than 0.005 µM; to `Nc1nccn2c(C3CCC(CO)OC3)nc(-c3cnc(Oc4cccc(Cl)c4)nc3)c12` (stereo not shown) [Compound 81], greater than 1 µM.
To `Nc1nccn2c(C3CCC(CO)OC3)nc(-c3ccc(Oc4cccc(OCC5CC5)c4F)cc3)c12` (stereo not shown) [Compound 23] belongs 0.1 to 1 µM; to `Nc1nccn2c(C3CCC(CO)OC3)nc(-c3ccc(C(F)(F)c4cccc(F)c4F)cc3)c12` (stereo not shown) [Compound 127], 0.005 to 0.02 µM; to `Cc1cccc(Oc2ccc(-c3nc(C45CCC(CO)(CC4)OC5)n4ccnc(N)c34)cc2)c1F` [Compound 92], less than 0.005 µM.
Under `Nc1ccccc1C(=O)c1ccc(-c2nc(C3CCC(CO)OC3)n3ccnc(N)c23)cc1` (stereo not shown) [Compound 65] stands 0.005 to 0.02 µM.
The molecule `CNc1ccccc1C(=O)c1ccc(-c2nc(C3CCC(CO)OC3)n3ccnc(N)c23)cc1` (stereo not shown) [Compound 67] had an IC50 of 0.1 to 1 µM.
`COc1cccc(C(F)(F)c2ccc(-c3nc(C4CCC(CO)OC4)n4ccnc(N)c34)cc2)c1F` (stereo not shown) [Compound 126] registered an IC50 of 0.005 to 0.02 µM.
Take `CNC(=O)c1cc(Oc2ccc(-c3nc(C4CCC(CO)OC4)n4ccnc(N)c34)cc2)ccn1` (stereo not shown) [Compound 107]: the IC50 was in the range of 0.1 to 1 µM.
`CC(C)(c1ccccc1)c1ccc(-c2nc(C3CCC(CO)OC3)n3ccnc(N)c23)cc1` (stereo not shown) [Compound 131] yielded an IC50 greater than 1 µM.
Turning to `COc1cccc(Oc2ccc(-c3nc(C4CCC(C(C)(C)O)OC4)n4ccnc(N)c34)cc2)c1F` (stereo not shown) [Compound 51], the IC50 was in the range of 0.02 to 0.1 µM.
With `Nc1nccn2c(C3CCC(CO)OC3)nc(-c3cnc(Nc4cccc(OC(F)(F)F)c4)nc3)c12` (stereo not shown) [Compound 56], the IC50 is greater than 1 µM.
Under `Nc1nccn2c(C3CCC(CO)OC3)nc(-c3ccc(Oc4cccc(OC(F)F)c4F)cc3)c12` (stereo not shown) [Compound 75] stands 0.005 to 0.02 µM; under `CNC(=O)c1cccc(Oc2ccc(-c3nc(C4CCC(CO)OC4)n4ccnc(N)c34)cc2)c1F` (stereo not shown) [Compound 28], 0.02 to 0.1 µM; under `COc1cccc(Oc2ccc(-c3nc(C45CCC(CO)(CC4)OC5)n4c(Cl)cnc(N)c34)cc2)c1F` [Compound 39], less than 0.005 µM.
The molecule `Nc1ncc(Cl)n2c(C34COC(CO)(C3)C4)nc(-c3ccc(Oc4cccc(OC(F)(F)F)c4F)cc3F)c12` [Compound 41] gave an IC50 of 0.005 to 0.02 µM.
On to `CC(N)(c1ccccc1)c1ccc(-c2nc(C3CCC(CO)OC3)n3ccnc(N)c23)cc1` (stereo not shown) [Compound 47], for which the IC50 lay in the range of 0.1 to 1 µM.
`COc1cccc(Oc2ccc(-c3nn(C4CCC(CO)OC4)c4ccnc(N)c34)cc2)c1F` (stereo not shown) [Compound 30] came in with an IC50 of 0.005 to 0.02 µM.
Under `Nc1nccn2c(C3CCC(CO)OC3)nc(-c3ccc(Oc4ccc(C5CC5)cc4F)cc3)c12` (stereo not shown) [Compound 25] stands 0.02 to 0.1 µM; under `Nc1nccn2c(C34CCC(CO)(CC3)OC4)nc(-c3ccc(Oc4cccc(Cl)c4F)cc3)c12` [Compound 94], 0.005 to 0.02 µM.
Under `Nc1nccn2c(C34CCC(CO)(CC3)OC4)nc(-c3ccc(C(F)(F)c4cccc(C5CC5)c4)cc3)c12` [Compound 143] stands 0.02 to 0.1 µM; under `COc1cccc(Oc2ccc(-c3nc(C4CCC(CO)OC4)n4ccnc(N)c34)cc2)c1C#N` (single isomer, unassigned) [Compound 89-P2], less than 0.005 µM; under `Nc1nccn2c(C3CCC(CO)OC3)nc(-c3ccc(C(=O)Nc4nccc(C(F)(F)F)c4F)cc3)c12` (stereo not shown) [Compound 86], 0.1 to 1 µM.
To `COc1cccc(Oc2ccc(-c3nc(C4CCC(CO)OC4)n4ccncc34)cc2)c1F` (stereo not shown) [Compound 90] belongs 0.02 to 0.1 µM; to `Nc1nccn2c(C3CCC(CO)OC3)nc(-c3ccc(Oc4cccnc4F)cc3)c12` (stereo not shown) [Compound 59], greater than 1 µM.
Regarding `Nc1nccn2c(C34COC(CO)(C3)C4)nc(-c3ccc(C(=O)Nc4ccccn4)cc3)c12` [Compound 42], the IC50 is 0.02 to 0.1 µM.
Under `COc1cccc(Oc2ccc(-c3nc(C45COC(CO)(C4)C5)n4ccnc(N)c34)cc2)c1C#N` [Compound 137] stands 0.005 to 0.02 µM.
To `Nc1nccn2c(C3CCC(CO)OC3)nc(-c3ccc(C(=O)Nc4ccc(F)cn4)cc3)c12` (stereo not shown) [Compound 69] belongs 0.02 to 0.1 µM.
To `COc1cccc(Oc2ccc(-c3nc(C45CCC(CO)(CC4)OC5)n4ccnc(N)c34)c(F)c2)c1C#N` [Compound 115] belongs less than 0.005 µM.
`CC(O)(c1ccccc1)c1ccc(-c2nc(C3CCC(CO)OC3)n3ccnc(N)c23)cc1` (stereo not shown) [Compound 27] displayed an IC50 of 0.02 to 0.1 µM.
The molecule `Nc1nccn2c(C3CCC(CO)OC3)nc(-c3ccc(Nc4ccccc4)cc3)c12` (stereo not shown) [Compound 48] displayed an IC50 of 0.02 to 0.1 µM.
`Nc1nccn2c(C3CCC(CO)OC3)nc(-c3ccc(C(F)(F)c4ccccc4)cc3F)c12` (stereo not shown) [Compound 113] returned an IC50 of 0.005 to 0.02 µM.
Regarding `Nc1nccn2c(C34CCC(CO)(CC3)OC4)nc(-c3ccc(C(=O)Nc4ccccn4)cc3F)c12` [Compound 35], the IC50 fell in the range of 0.005 to 0.02 µM.
As for `Nc1nccn2c(C3CCC(CO)OC3)nc(-c3ccc(C(O)c4ccccc4Cl)cc3)c12` (stereo not shown) [Compound 63], the IC50 is 0.1 to 1 µM.
Under `Cc1cccnc1NC(=O)c1ccc(-c2nc(C3CCC(CO)OC3)n3ccnc(N)c23)cc1` (stereo not shown) [Compound 97] stands 0.1 to 1 µM; under `COc1cccc(Oc2ccc(-c3nc(C4CCC(CO)OC4)n4c(Cl)cnc(N)c34)cc2)c1C#N` (stereo not shown) [Compound 100], less than 0.005 µM.
To `COc1ccccc1C(=O)NCc1ccc(-c2nc(C3CCC(CO)OC3)n3ccnc(N)c23)cc1` (stereo not shown) [Compound 33] belongs 0.02 to 0.1 µM; to `Nc1nccn2c(C3CCC(CO)OC3)nc(-c3ccc(C(=O)c4ccccc4Cl)cc3)c12` (stereo not shown) [Compound 62], 0.02 to 0.1 µM.
Consider `Nc1ncc(Cl)n2c(C34COC(CO)(C3)C4)nc(-c3ccc(C(=O)Nc4ccccn4)cc3F)c12` [Compound 44], for which the IC50 was 0.02 to 0.1 µM.
To `COc1cccc(Oc2ccc(-c3nc(C45COC(CO)(C4)C5)n4ccnc(N)c34)cc2)c1F` [Compound 45] belongs 0.005 to 0.02 µM; to `Nc1nccn2c(C3CCC(CO)OC3)nc(-c3ccc(C(=O)Nc4ccc(Cl)cn4)cc3)c12` (stereo not shown) [Compound 68], 0.02 to 0.1 µM; to `Nc1nccn2c(C3CCC(CO)OC3)nc(-c3ccc(C(=O)c4ccc(Cl)cc4)cc3)c12` (stereo not shown) [Compound 102], 0.02 to 0.1 µM.
Consider `Nc1ncnc2c1c(-c1ccc(C(=O)Nc3ccccn3)cc1)nn2C1CCC(CO)OC1` (stereo not shown) [Compound 108], for which the IC50 is 0.005 to 0.02 µM.
For the molecule `Nc1nccn2c(C3CCC(CO)OC3)nc(-c3ccc(Oc4cccc(OC5CC5)c4F)cc3)c12` (stereo not shown) [Compound 15], the IC50 lay within 0.005 to 0.02 µM.
In turn, `Nc1nccn2c(C3CCC(CO)OC3)nc(-c3ccc(Oc4ccccc4)cc3Cl)c12` (stereo not shown) [Compound 32] showed an IC50 of 0.005 to 0.02 µM.
With `COc1cccc(Oc2ccc(-c3nc(C45CCC(CO)(CC4)OC5)n4c(Cl)cnc(N)c34)cc2)c1C#N` [Compound 122], the IC50 is less than 0.005 µM.
Under `Nc1nccn2c(C3CCC(CO)OC3)nc(-c3ccc(Oc4ccc5c(c4F)OCO5)cc3)c12` (stereo not shown) [Compound 85] stands 0.1 to 1 µM.
